In brackets after ≈: the same amount, converted by molar mass. Read-outs that look alike come from different tables or passages of the source.
System: M. tuberculosis H37Rv-GFP
Experiment: microbe, parasite or virus in culture
Assay type: cell-based, Mycobacterium tuberculosis
Conditions: Mycobacterium tuberculosis, H37RV; for inhibition at 20 µM: Macrophage
[1] = confirmation, 20 uM, intracellular, read-out: QIM Confirm % Inhibition 20 uM
[2] = primary screen, 20 μM, intracellular, read-out: Primary QIM % Inhibition
[3] = read-out: Primary QIM % Inhibition
[4] = read-out: QIM Confirm % Inhibition 20 uM

| Compound | inhibition at 20 µM [1] | inhibition at 20 µM [2] | inhibition at 20 µM [3] | inhibition at 20 µM [4] | MIC (120 h, read-out: minimal inhibitory concentration (MIC)) |
| --- | --- | --- | --- | --- | --- |
| Oc1ccccc1/N=C/c1ccc(OCc2ccccc2)cc1 [IPK 000 169 86] | 13% | 0.5% | – | – | – |
| COc1ccc(/C=C2\c3ccccc3-c3ccc(C(=O)CCCCN4CCCCC4)cc32)cc1OC [IPK 000 198 54] | 77.9% | 38.6% | – | – | – |
| CC(=O)COc1c([N+](=O)[O-])ccc(F)c1F [IPK 000 259 78] | 58.8% | 4.9% | – | – | – |
| CS(=O)(=O)c1nnnn1-c1ccccc1 [IPK 000 244 12] | 11.8% | 29.9% | – | – | – |
| C=CCc1ccc(OCC(=O)N/N=C/c2ccc([N+](=O)[O-])o2)c(OC)c1 [IPK 000 148 44] | 8.2% | -15.1% | – | – | – |
| O=C(NNC(=O)c1cc([N+](=O)[O-])cc([N+](=O)[O-])c1)c1ccc(COc2ccc3c(c2)CCC3)cc1 [IPK 000 149 44] | – | – | 57.6% | 47.1% | – |
| O=C1Nc2ccccc2/C1=C(\c1ccccc1)c1nc2ccccc2[nH]1 [IPK 000 259 35] | 68.8% | 66% | – | – | – |
| O=C(NCCc1ccccc1)c1ccc([N+](=O)[O-])o1 [IPK 000 235 09] | 36.4% | 46.2% | – | – | – |
| O=C(N/N=C/c1ccccc1)c1ccncc1 [IPK 000 219 27] | 57.4% | 96.9% | – | – | – |
| O=C(Nc1nccs1)c1ccc(COc2ccc(F)cc2)o1 [IPK 000 141 08] | 84% | 67.5% | – | – | – |
| CS(=O)(=O)c1nc(-c2ccc(Br)cc2)n[nH]1 [IPK 000 134 62] | 25.5% | -56.1% | – | – | – |
| NC(=O)c1ccccc1/N=C/c1ccc([N+](=O)[O-])o1 [IPK 000 175 27] | 25.8% | -69.7% | – | – | – |
| O=[N+]([O-])c1ccc(O)c(-c2cc(C(F)(F)C(F)F)[nH]n2)c1 [IPK 000 164 52] | 80% | 64.7% | – | – | – |
| CC1=NN(C(N)=S)C(=O)/C1=N/Nc1ccc(C)cc1 [IPK 000 168 31] | 78.1% | 83.9% | – | – | – |
| O=[N+]([O-])c1ccc(/C=N/c2ccccc2O)s1 [IPK 000 169 76] | 16.7% | -71.9% | – | – | – |
| CSc1ccc(/C=N/Nc2nc(-c3ccc(NC(C)=O)cc3)cs2)cc1 [IPK 000 163 67] | 99.5% | 68.1% | – | – | – |
| CCCCS(=O)(=O)Nc1ccc(Cc2ccncc2)cc1 [IPK 000 249 12] | 53.2% | 23.6% | – | – | – |
| CS(=O)(=O)c1nc(-c2ccc(Cl)cc2)n[nH]1 [IPK 000 134 63] | 12.6% | -18.3% | – | – | – |
| CC(C)(C)c1ccc(C(=O)NC2CCCCCCC2)cc1 [IPK 000 248 71] | 79% | 79.5% | – | – | – |
| CCOC(=O)C1=C(COc2ccc(F)cc2)NC(=O)NC1c1ccc2c(c1)OCO2 (stereo not drawn) [IPK 000 251 80] | 38.2% | 25.5% | – | – | – |
| CCC1=NN(C(=O)c2ccncc2)C(O)(C(F)(F)F)C1 (stereo not drawn) [IPK 000 134 50] | 101% | 99.7% | – | – | – |
| O=C(CCC(=O)Nc1ccccc1)N/N=C/c1ccc([N+](=O)[O-])o1 [IPK 000 262 39] | 29.5% | 2.1% | – | – | – |

| Compound | inhibition at 20 µM [1] | inhibition at 20 µM [2] | inhibition at 20 µM [3] | inhibition at 20 µM [4] | MIC (120 h, read-out: minimal inhibitory concentration (MIC)) |
| --- | --- | --- | --- | --- | --- |
| CCCCNC(=O)c1ccc2c(c1)OCO2 [IPK 000 208 53] | 23.3% | 71.6% | – | – | – |
| Cc1ccoc1/C=N/NC(=O)c1ccncc1 [IPK 000 193 76] | 97.4% | 81.4% | – | – | – |
| O=[N+]([O-])c1ccc(NNc2ccccc2)c([N+](=O)[O-])c1 [IPK 000 171 46] | – | – | 24.3% | 72.1% | – |
| NNC(=O)c1ccc(COc2ccc(Cl)cc2Cl)o1 [IPK 000 140 81] | 91.8% | 94.6% | – | – | – |
| O=C(O)c1cccc2c1NC(c1ccccc1[N+](=O)[O-])C1Cc3ccccc3C21 (stereo not drawn) [IPK 000 241 72] | 28% | -43.3% | – | – | – |
| CCCC(=O)Nc1ccc(-c2csc(N/N=C/c3ccc(SC)cc3)n2)cc1 [IPK 000 163 51] | 50% | 89.4% | – | – | – |
| CC1=NN(C(N)=S)C(=O)/C1=N/Nc1ccccc1C [IPK 000 168 32] | 81.9% | 75.7% | – | – | – |
| CC(C)c1ccc(OCC(=O)N/N=C\c2ccccc2OCC(=O)O)cc1 [IPK 000 138 43] | 78.9% | 76.3% | – | – | – |
| CCOc1ccc(NCC(=O)n2nc(C)cc2C)cc1 [IPK 000 234 61] | -1.6% | -61% | – | – | – |
| CCOc1ccc(NN=C(C#N)C#N)cc1 [IPK 000 170 72] | – | – | -29.5% | -21.3% | – |
| O=C(COc1ccc(-c2ccccc2)cc1)Nc1nc2ccccc2s1 [IPK 000 142 17] | – | – | 84.3% | 82.3% | – |
| Cc1ccccc1C(=O)NNC(=O)c1cc([N+](=O)[O-])cc([N+](=O)[O-])c1 [IPK 000 169 30] | – | – | 56.2% | 73.7% | – |
| CC12CC3CC(C)(C1)CC(NC(=O)c1ccc(N4CCCC4)c([N+](=O)[O-])c1)(C3)C2 [IPK 000 230 02] | – | – | -7.7% | 40.5% | – |
| O=C(Nc1ccc(Cl)c(Cl)c1)c1ccc(Cn2cc(Cl)cn2)cc1 [IPK 000 180 16] | 69.8% | 46.1% | – | – | – |
| O=C(c1ccc([N+](=O)[O-])o1)N1CCN(Cc2ccccc2)CC1 [IPK 000 135 28] | 26.6% | 53.3% | – | – | – |
| O=C(Nc1ccc(F)cc1)Nc1ccc(C(F)(F)F)cc1 [IPK 000 147 17] | 40.8% | 11.9% | – | – | – |
| O=[N+]([O-])c1ccc(/C=N/c2ccc(Cl)c([N+](=O)[O-])c2)o1 [IPK 000 178 24] | – | – | -26.4% | -4.1% | – |
| CC(NC(=O)c1cc([N+](=O)[O-])cc([N+](=O)[O-])c1)c1ccccc1 (stereo not drawn) [IPK 000 046 80] | – | – | 76.9% | 64.6% | – |
| OC1CCCc2c1[nH]c1ccc(Br)cc21 (stereo not drawn) [IPK 000 180 76] | 92.1% | 70.6% | – | – | – |
| CCOc1ccc(C(=O)NCCC(C)C)cc1 [IPK 000 210 83] | 48.2% | 70.4% | – | – | – |
| CCC(=O)Nc1ccc(-c2csc(N/N=C/c3ccc(SC)cc3)n2)cc1 [IPK 000 163 27] | 17.9% | 69.5% | – | – | – |
| c1cc2c3c(cccc3c1)NC1(CCCCCC1)N2 [IPK 000 141 61] | 50.8% | 4.2% | – | – | – |

| Compound | inhibition at 20 µM [1] | inhibition at 20 µM [2] | inhibition at 20 µM [3] | inhibition at 20 µM [4] | MIC (120 h, read-out: minimal inhibitory concentration (MIC)) |
| --- | --- | --- | --- | --- | --- |
| CCCCOC(=O)c1cc([N+](=O)[O-])c(Sc2nc3ccccc3[nH]2)c([N+](=O)[O-])c1 [IPK 000 141 58] | – | – | 58.2% | 59.2% | – |
| Cc1ccc(NC(=O)c2ccc(CSc3ccccn3)cc2)c(C)c1 [IPK 000 125 22] | 82% | 75.4% | – | – | – |
| O=C(c1ccc([N+](=O)[O-])o1)N1CCCc2ccccc21 [IPK 000 161 32] | 17.8% | -37.9% | – | – | – |
| Cc1ccc(NC(=O)c2ccc(F)cc2)cc1Cl [IPK 000 205 22] | 69.7% | 85.1% | – | – | – |
| O=C(Nc1ccc(Br)c(Cl)c1)c1cccs1 [IPK 000 169 42] | 76.9% | -64% | – | – | – |
| O=C(COc1ccccc1)N/N=C/c1ccc([N+](=O)[O-])o1 [IPK 000 149 78] | 3.6% | 15.2% | – | – | – |
| Cc1ccc(/C=N/NC(=O)c2ccncc2)o1 [IPK 000 219 26] | 51.4% | 91.1% | – | – | – |
| CC(C)(C)c1ccc(-c2nc(Oc3ccc(O)cc3)c3ccccc3n2)cc1 [IPK 000 142 18] | 79.4% | 73.2% | – | – | – |
| CC1=NN(c2ccc([N+](=O)[O-])cc2)C(=O)/C1=N/Nc1c(Cl)cc([N+](=O)[O-])cc1Cl [IPK 000 179 49] | – | – | 65.7% | 78.5% | – |
| CC/C(=N/Nc1nc(-c2ccc(NC(C)=O)cc2)cs1)c1ccccc1 [IPK 000 163 64] | 74.2% | 74.9% | – | – | – |
| Cc1cc(C)nc(NC(=N)Nc2ccc(OCc3ccc(Cl)cc3)cc2)n1 [IPK 000 163 93] | 89.9% | 66.7% | – | – | – |
| O=C(NC1CCCCCC1)c1cc([N+](=O)[O-])cc([N+](=O)[O-])c1 [IPK 000 046 83] | – | – | 75.8% | 61.7% | – |
| O=C(CSC1=NCCS1)Nc1ccc(Br)cc1F [IPK 000 150 41] | 83.3% | 78.3% | – | – | – |
| Cc1ccsc1/C=C/c1ccccc1O [IPK 000 179 05] | 16.6% | -31.7% | – | – | – |
| CC(C)CNC(=O)c1cc([N+](=O)[O-])cc([N+](=O)[O-])c1 [IPK 000 046 78] | – | – | 73.3% | 88.9% | – |
| Cc1ccc(NC(=O)c2ccc(CSC3=NCCS3)cc2)c(C)c1 [IPK 000 125 15] | 88.7% | 87.1% | – | – | – |
| COc1cc(/C=N/NC(=O)c2ccncc2)cc(Br)c1OCc1ccccc1Cl [IPK 000 157 51] | 46.2% | 96% | – | – | – |
| CCOc1ncccc1C(=O)N/N=C/c1ccc([N+](=O)[O-])o1 [IPK 000 148 65] | 29.1% | 41.2% | – | – | – |
| COc1ccc(/C=N/Nc2nc(-c3ccc(NC(C)=O)cc3)cs2)cc1 [IPK 000 163 52] | 70.7% | 86.2% | – | – | – |
| CO[C@H]1/C=C/O[C@@]2(C)Oc3c(C)c(O)c4c(O)c(c(/C=N/N5CCN(C)CC5)c(O)c4c3C2=O)NC(=O)/C(C)=C\C=C\[C@H](C)[C@H](O)[C@@H](C)[C@@H](O)[C@@H](C)[C@H](OC(C)=O)[C@@H]1C [rifampin, reference compound] | – | – | – | – | 2.4 µg/mL (≈ 2.92 µM) |
| O=C(Nc1ccc(Cl)c(Cl)c1)c1ccc(Cn2cc(Br)cn2)cc1 [IPK 000 180 17] | 34.5% | 63.2% | – | – | – |

Reference: patent US8785452B2, “Anti-infective compounds” (priority 2008, dated 2014)
